Test systems include RPMI-8226 leukemia; SW-620 colon; KM12 colon; HOP-92 NSCLC; NCI-H226 lung; SF-268 CNS; EKVX NSCLC; HCC-2998 colon; MOLT-4 leukemia; SK-OV-3 ovarian.
Common to all, as to assay: NCI-60 cell line screen, 48 h

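Each compound was tested at five concentrations against cells in 96-well plates for 48 hours. GI50 = concentration required for 50% inhibition of growth. At the TGI there is no net growth.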

Turning to `CCN(CC)Cc1cc(Nc2nc(NC3CCC(N(C)C)CC3)c3ccccc3n2)ccc1OC` (stereo unspecified), the GI50 was 2.34 µM in the assay on RPMI-8226 leukemia; 3.18 µM in the assay on SW-620 colon; 3.35 µM in the assay on KM12 colon; 1.63 µM in the assay on HOP-92 NSCLC; 3.94 µM with NCI-H226 lung; 5.35 µM in the assay on SF-268 CNS. In addition, the GI50 was 7.75 µM in the assay on EKVX NSCLC, 10.4 µM in the assay with HCC-2998 colon and 2.34 µM with MOLT-4 leukemia. Besides, the TGI is 6.63 µM with RPMI-8226 leukemia; 13.3 µM with SW-620 colon; 13.2 µM with KM12 colon; 6.71 µM in the assay on HOP-92 NSCLC; 16.8 µM with NCI-H226 lung; 20.4 µM with SF-268 CNS. Also, the TGI in the assay with EKVX NSCLC is 25.5 µM; in the assay with HCC-2998 colon, 22.2 µM; in the assay with MOLT-4 leukemia it was 6.9 µM.

Take `Cc1cccc(NC(=O)c2sc3nc4c(cc3c2N)C(=O)CCC4)c1`: the GI50 is 0.594 µM with RPMI-8226 leukemia; 0.212 µM with SW-620 colon; 0.215 µM in the assay on KM12 colon; 1.8 µM in the assay with HOP-92 NSCLC; 0.317 µM with SK-OV-3 ovarian; 5.8 µM in the assay with NCI-H226 lung. Also, the values for the GI50 in the assay with SF-268 CNS, in the assay on HCC-2998 colon and in the assay on MOLT-4 leukemia were 3.07 µM, 0.54 µM and 25 µM, respectively. Besides, the TGI with RPMI-8226 leukemia was over 100 µM; with SW-620 colon it was over 65.8 µM; in the assay on KM12 colon, over 100 µM; with HOP-92 NSCLC, over 74.9 µM; in the assay with SK-OV-3 ovarian, over 100 µM; with NCI-H226 lung it was over 100 µM. Also, the TGI in the assay with SF-268 CNS, in the assay on HCC-2998 colon and with MOLT-4 leukemia was over 100 µM each time.

With `O=C1CC(c2ccccc2)Oc2ccccc21` (stereo unspecified), the TGI with RPMI-8226 leukemia was 37.9 µM; in the assay with KM12 colon it was over 100 µM; in the assay with HOP-92 NSCLC it was 62.8 µM; in the assay on SK-OV-3 ovarian, over 100 µM; with NCI-H226 lung, over 100 µM; with SF-268 CNS, over 100 µM. The TGI was over 100 µM in the assay with EKVX NSCLC, over 100 µM in the assay on HCC-2998 colon and 34.4 µM in the assay on MOLT-4 leukemia.

Consider `CCn1c2c(c3ccccc3c1=O)C(=O)c1ccccc1-2`, for which the TGI in the assay with RPMI-8226 leukemia, in the assay with SW-620 colon, with KM12 colon, in the assay with HOP-92 NSCLC, with SK-OV-3 ovarian and with NCI-H226 lung was over 100 µM throughout. In addition, the TGI with SF-268 CNS, in the assay with EKVX NSCLC and in the assay on MOLT-4 leukemia was over 100 µM each time.

With `COc1ccc(C(=O)c2cc(OC)c(OC)c(OC)c2OC)cc1O`, the GI50 with SW-620 colon was 2.99 µM; with KM12 colon, 2.91 µM; in the assay on HOP-92 NSCLC, 4.73 µM; with SK-OV-3 ovarian, 3.33 µM; in the assay on NCI-H226 lung it was 20.5 µM; with SF-268 CNS, 4.19 µM. The values for the GI50 in the assay with EKVX NSCLC, in the assay with HCC-2998 colon and in the assay on MOLT-4 leukemia were 28.6 µM, 6.15 µM and 4.56 µM, respectively. For the same molecule, the TGI in the assay with SW-620 colon is over 100 µM; with KM12 colon, over 100 µM; in the assay with HOP-92 NSCLC it was over 100 µM; in the assay with SK-OV-3 ovarian, 90.1 µM; in the assay on NCI-H226 lung, over 100 µM; in the assay on SF-268 CNS, over 100 µM. Besides, the TGI in the assay on EKVX NSCLC was over 100 µM; with HCC-2998 colon it was 65.1 µM; in the assay with MOLT-4 leukemia, over 100 µM.

Take `Cn1c([N+](=O)[O-])cnc1C=C1C(=O)c2ccccc2C1=O`: the GI50 in the assay with RPMI-8226 leukemia is 3.36 µM; with SW-620 colon, 3.34 µM; in the assay with KM12 colon it was 11.1 µM; in the assay with HOP-92 NSCLC it was 1.65 µM; with SK-OV-3 ovarian, 6.32 µM; in the assay with NCI-H226 lung it was 13.1 µM. Moreover, the results for the GI50 in the assay on SF-268 CNS, with HCC-2998 colon and with MOLT-4 leukemia were 3.95 µM, 13.5 µM and 3.68 µM, respectively. In addition, the TGI with RPMI-8226 leukemia is 13 µM; with SW-620 colon, 13.1 µM; with KM12 colon, 32.7 µM; in the assay with HOP-92 NSCLC, 6.1 µM; with SK-OV-3 ovarian, 29.4 µM; in the assay with NCI-H226 lung, 47.4 µM. In addition, the TGI in the assay on SF-268 CNS was 16.7 µM; in the assay with HCC-2998 colon it was 32.2 µM; with MOLT-4 leukemia it was 17.6 µM.

For `CC(=O)O[C@H]1C(=O)[C@@]2(C)C([C@H](OC(=O)c3ccccc3)[C@]3(O)C[C@H](OC(=O)[C@H](O)[C@@H](NC(=O)c4ccccc4)c4ccccc4)C(C)=C1C3(C)C)[C@]1(OC(C)=O)CO[C@@H]1C[C@@H]2O` (stereo partly specified), the GI50 is under 0.005 µM in the assay on RPMI-8226 leukemia; under 0.005 µM in the assay with SW-620 colon; under 0.005 µM with KM12 colon; 0.054 µM with HOP-92 NSCLC; 0.0189 µM with NCI-H226 lung; 0.021 µM in the assay on SF-268 CNS. Besides, the figures for the GI50 with HCC-2998 colon and in the assay on MOLT-4 leukemia were 0.00868 µM and 0.0152 µM, respectively. The TGI in the assay on RPMI-8226 leukemia, with SW-620 colon, in the assay on KM12 colon, in the assay with HOP-92 NSCLC, with SK-OV-3 ovarian and in the assay on NCI-H226 lung was over 50 µM in each case. The TGI in the assay with SF-268 CNS is over 50 µM; in the assay on MOLT-4 leukemia, over 37.2 µM.

For `O=C(NC1C(=O)NNC1c1cccc([N+](=O)[O-])c1)c1ccccc1` (stereo unspecified), the TGI in the assay on RPMI-8226 leukemia, with SW-620 colon, with KM12 colon, in the assay with HOP-92 NSCLC, with NCI-H226 lung and in the assay with SF-268 CNS was over 100 µM each time. The TGI in the assay on EKVX NSCLC, with HCC-2998 colon and in the assay with MOLT-4 leukemia was over 100 µM each time.

Take `COc1cc(Nc2cnc3ccc(C(F)(F)F)cc3n2)cc(OC)c1OC`: the TGI in the assay on RPMI-8226 leukemia, with SW-620 colon, with HOP-92 NSCLC, with NCI-H226 lung, in the assay with SF-268 CNS and in the assay on EKVX NSCLC was over 100 µM each time. The TGI in the assay with HCC-2998 colon and in the assay on MOLT-4 leukemia was over 100 µM each time.

For the molecule `O=c1/c(=C/c2ccccc2[N+](=O)[O-])sc2nnc(-c3cccnc3)n12`, the TGI was over 100 µM in the assay on RPMI-8226 leukemia; 24.5 µM in the assay on SW-620 colon; over 100 µM in the assay on KM12 colon; over 100 µM in the assay with HOP-92 NSCLC; over 100 µM with NCI-H226 lung; over 100 µM with SF-268 CNS. Moreover, the TGI in the assay on EKVX NSCLC, with HCC-2998 colon and in the assay with MOLT-4 leukemia was over 100 µM each time.

For the molecule `CCOC(=O)c1nc(C)oc1C(F)(F)F`, the TGI in the assay on SW-620 colon, in the assay with KM12 colon, with HOP-92 NSCLC, in the assay with SK-OV-3 ovarian, in the assay on NCI-H226 lung and with SF-268 CNS was over 100 µM in each case. Moreover, the TGI in the assay with EKVX NSCLC, in the assay with HCC-2998 colon and in the assay with MOLT-4 leukemia was over 100 µM in each case.

(Values after PubChem BioAssay (NCI).)
